According to ChEMBL document CHEMBL3045924, “Synthesis, molecular docking, and cardioprotective activity of 2-methylthio-1,4-dihydropyrimidines” (2012):

Each molecule was assayed on Rattus norvegicus (assay: (§1) Cardioprotective activity in adrenaline-induced MI Rattus norvegicus Sprague-Dawley (rat) model assessed as effect on P-duration at 5 mg/kg, po for 15 days challenged with adrenaline on day 14 and day 15 measured after 24 hr post second adrenaline injection by ECG analysis (reference value: 0.01136 +/- 0.0044 sec)).
Format: functional

SMILES | Time
COC(=O)C1=C(C)NC(C)=C(C(=O)OC)C1c1ccccc1[N+](=O)[O-] [NIFEDIPINE] | 0.01815 s
COC(=O)C1=C(C)NC(SC)=NC1c1ccc(Cl)cc1 (stereo not given) | 0.01358 s
CCOC(=O)C1=C(C)NC(SC)=NC1c1ccc([N+](=O)[O-])cc1 (stereo not given) | 0.0166 s

The molecules below were run on Rattus norvegicus (assay: Cardioprotective activity in adrenaline-induced MI Rattus norvegicus Sprague-Dawley (rat) model assessed as decrease in heart rate at 5 mg/kg, po for 15 days challenged with adrenaline on day 14 and day 15 measured after 24 hr post second adrenaline injection (reference value: 422.76 +/- 6.158 bpm)).
Format: functional

SMILES | Activity
COC(=O)C1=C(C)NC(C)=C(C(=O)OC)C1c1ccccc1[N+](=O)[O-] [NIFEDIPINE] | 278.5 bpm
COC(=O)C1=C(C)NC(SC)=NC1c1ccc(Cl)cc1 (stereo not given) | 382.03 bpm
CCOC(=O)C1=C(C)NC(SC)=NC1c1ccc([N+](=O)[O-])cc1 (stereo not given) | 315.766 bpm

These molecules were tested on Rattus norvegicus (assay: as §1, with “decrease in QT interval prolongation” for “effect on P-duration”, “0.08205” for “0.01136”, “0.0023” for “0.0044”).
Format: functional

SMILES | Time
COC(=O)C1=C(C)NC(C)=C(C(=O)OC)C1c1ccccc1[N+](=O)[O-] [NIFEDIPINE] | 0.06101 s
COC(=O)C1=C(C)NC(SC)=NC1c1ccc(Cl)cc1 (stereo not given) | 0.03879 s
CCOC(=O)C1=C(C)NC(SC)=NC1c1ccc([N+](=O)[O-])cc1 (stereo not given) | 0.06664 s

These molecules were tested on Rattus norvegicus (assay: as §1, with “decrease in ST interval” for “effect on P-duration”, “0.0829” for “0.01136”, “0.0024” for “0.0044”).
Format: functional

SMILES | Time
COC(=O)C1=C(C)NC(C)=C(C(=O)OC)C1c1ccccc1[N+](=O)[O-] [NIFEDIPINE] | 0.0455 s
COC(=O)C1=C(C)NC(SC)=NC1c1ccc(Cl)cc1 (stereo not given) | 0.0545 s
CCOC(=O)C1=C(C)NC(SC)=NC1c1ccc([N+](=O)[O-])cc1 (stereo not given) | 0.05879 s

Each molecule was assayed on Rattus norvegicus (assay: as §1, with “increase in R-R interval” for “effect on P-duration”, “0.135” for “0.01136”, “0.0176” for “0.0044”).
Format: functional

SMILES | Time
COC(=O)C1=C(C)NC(C)=C(C(=O)OC)C1c1ccccc1[N+](=O)[O-] [NIFEDIPINE] | 0.2146 s
COC(=O)C1=C(C)NC(SC)=NC1c1ccc(Cl)cc1 (stereo not given) | 0.1533 s
CCOC(=O)C1=C(C)NC(SC)=NC1c1ccc([N+](=O)[O-])cc1 (stereo not given) | 0.1852 s
